Reference: US10241113B2, “CD28 expression during lenalidomide immune modulation” (H. LEE MOFFITT CANCER CENTER AND RESEARCH INSTITUTE, INC., priority 2012, dated 2019)
One block for each compound: values may come before it.

Columns and labels:
[1] = system: CD28; assay: CD28 surface expression by flow cytometry after anti-CD3 stimulation; type: cell-based, human; conditions: anti-CD3 alone, 72 hours
Protocol: Stimulation followed by measurement of CD28 surface expression was performed using anti-CD3 (10 μg/ml) alone or anti-CD3 (10 μg/ml) plus anti-CD28 (10 μg/ml) coupled 4.5 micron polystyrene polybeads (Polysciences, Inc, Warrington, Pa. USA). 1×10^5 beads were added to 2×10^5 cells in u-bottom 96-well plates, as previously described (Viola A, et al. Science 1999 283(5402):680-2). Cells were collected at 72 hours and 5 days, and CD28 surface expression was measured via flow cytometry on LSRII flow cytometer (BD Biosciences, San Jose, Calif. USA).

[2] = system: CD28^+ T-cells; assay: IL-2 ELISA after CD28 siRNA knockdown; type: cell-based, human; conditions: average
Protocol: (§1) For siRNA knockdown (KD), T-cells were transfected with siCD28 or control siRNA (Santa Cruz Biotechnology, Inc, Santa Cruz, Calif. USA) using Amaxa Nucleofection technology (Lonza, Basel, Switzerland). 10×10^6 purified T-cells were mixed with either control or CD28 siRNA in 100 μl Human T-cell nucleofection solution, nucleofected, and then placed in Lymphocye Media (Lonza Basel, Switzerland). Cells were rested 24 hours before being stimulated with either plate bound anti-CD3, or anti-CD3^+CD28, antibodies in the presence or absence of LEN. CD28 surface expression was measured via flow cytometry at 48 and 72 hours after stimulation, at the same time supernatant was collected for ELISA analysis. Supernatant from stimulation experiments was frozen at −80° C. for analysis via Human IL-2 ELISA kit (eBioscience, San Diego, Calif. USA).

[3] = system: MDS patients; assay: Hematologic response of MDS patients versus pre-treatment CD28 expression; type: in vivo, human; conditions: 10 mg 21 of 28 days, 16 weeks, 7 NR and 4 R
Protocol: MDS patients (n=100) were consented at H. Lee Moffitt Cancer Center in Tampa, Fla. to participate in a peripheral blood collection protocol approved by the University of South Florida Institutional Review Board from 2004-2009. All patients signed University of South Florida Institutional Review Board approved informed consents for the collection of 40 ml of peripheral blood in heparin tubes. Samples were obtained from each patient at various times from 2004-2009 for immune monitoring studies and all cells were frozen in liquid nitrogen. Twenty-one of these patients had samples that were collected within 4 weeks prior to LEN treatment. LEN was administered at a dose of 10 mg for 21 out of a 28-day cycle for four cycles. All patients were evaluated for hematologic response after 16 weeks according to 2006 International Working Group Criteria (IWG). […]
Naïve and memory CD4 and CD8 T-cell subtypes in MDS patients and healthy donors were detected after surface staining with anti-CD3-PE-Cy7, anti-CD8-PerCP-Cy5.5, anti-CD45RA-FITC, anti-CD27-APC, anti-CD28-PE, and DAPI (all from BD Biosciences, San Jose, Calif. USA). […] Samples were run on an LSRII flow cytometer (BD Pharmingen) and populations were analyzed by FlowJo Software (Tree Star Inc., Ashland, Oreg. USA).

[4] = system: CD28; assay: CD28 internalization and re-expression by flow cytometry after co-stimulation; type: cell-based, human
Protocol: as §1

[5] = system: pCREB binding to the IL-2 promoter; assay: Chromatin immunoprecipitation of pCREB at the IL-2 promoter; type: cell-based, human; conditions: anti-CD3 alone, 18 hours, 10 μM LEN
Protocol: Cells were isolated, fixed, lysed, and sonicated before chromatin-immunoprecipitation, as previously described (Smith M A, et al. J Biol Chem 2011 Mar. 11; 286(10):7893-904). Briefly, after stimulation and drug treatment, primary T-cells were treated with 1% formaldehyde for 10 min for cross-linking, followed by cell and nuclear lysis (50 mM Tris, pH 8.1, 10 mM EDTA, 1% SDS, 0.5 mM PMSF) and shearing. Chromatin was immunoprecipitated using 5 μg anti-phospho-CREB antibody (Millipore, Temecula, Calif. USA) and protein A/G beads (Santa Cruz Biotechnology Inc., Santa Cruz, Calif. USA). Immunoprecipitated chromatin was collected and washed sequentially with TSE buffer (20 mM Tris, pH 8.1, 50 mM NaCl, 2 mM EDTA, 0.1% SDS, 1.0% Triton X-100) and LiCl buffer (100 mM Tris, pH 8.1, 50 mM LiCl, 1% Nonidet P-40, 1% sodium deoxycholic acid, 1 mM EDTA). DNA was then eluted from the beads with 50 mM NaHCO3 containing 1% SDS and cross-linking reversed at 65° C. overnight followed by proteinase K treatment. DNA was then purified via QIAquick PCR purification kit (Qiagen, Germantown, Md. USA). For each sample, 4 μl DNA was amplified and measured using Sybr Green (Bio-Rad, Inc., Hercules, Calif. USA). Primers used to amplify the pCREB binding site-180 upstream of the transcription start site were: forward: 5′-[…]-3′ (SEQ ID NO:1) and reverse: 5′-[…]-3′ (SEQ ID NO:2).

[6] = system: CD28; assay: Western blot for total CD28 protein expression; type: cell-based, human; conditions: anti-CD3 activation for 1, 2, 4, 8, 12, and 48 hours
[7] = system: CD8^+CD28^− T-cells; assay: IL-2 ELISA of sorted CD8^+CD28^− T-cells; type: cell-based, human; conditions: anti-CD3 stimulation, 3 days, 10 μM LEN
Description: (§2) T-cells were purified from healthy donor buffy coats as previously described, and were stained with 4′,6-diamidino-2-phenylindole (DAPI) for viability, anti-CD8-APC-Cy7, CD4-PerCP-Cy5.5, and CD28-FITC antibodies (BD Pharmingen, San Jose, Calif.). Cells were then sorted into CD8^+CD28^+, CD8^+CD28^− populations via FACS Aria Cell Sorter (BD Pharmingen, San Jose, Calif.).
as §1

[8] = system: CD28; assay: CD28 mRNA expression by RT-qPCR; type: cell-based, human; conditions: anti-CD3 stimulation, 18 or 24 hours
Protocol: (§3) Total RNA was extracted from purified T-cells using the RNeasy Mini Kit (Qiagen, Chatsworth, Calif. USA). […] Relative target gene expression was measured by qRT-PCR using 18S rRNA expression as a reference gene. Expression levels of target mRNA and 18S rRNA were evaluated with Taqman Probes obtained from Applied Biosystems (Carlsbad, Calif.). All samples for both target genes (IL-2 or CD28) and 18S rRNA were measured in triplicate. Relative mRNA expression level for each sample was calculated using the ΔΔCt method (Pfaffl M W. Nucleic Acids Res 2001 May 1; 29(9):e45).

[9] = system: purified human T-cells; assay: IL-2 production by ELISA in stimulated T-cells; type: cell-based
Description: (§4) Peripheral blood from buffy coats of healthy donors was obtained from the Southwest Florida Blood Services, St. Petersburg, Fla., for use as controls and for the purification of T-cells. T-cells were isolated from the buffy coats using RosetteSep® Human CD3^+ T-cell Enrichment Cocktail (StemCell Technologies, Vancouver, BC Canada) according to the manufacturer's protocol. B57BL6 mice were maintained at an animal facility in accordance with the University of South Florida Committee on Animal Care. All mice were adult age 8-12 weeks, obtained from The Jackson Laboratory, and maintained in a pathogen-free environment at Moffitt Cancer Center. Mouse-specific antibodies for T-cell activation were purchased from eBioscience (San Diego, Calif.) and human-specific antibodies were purchased from BD Biosciences (San Jose, Calif. USA). To activate the T-cell receptor (TCR), T-cells were stimulated with plate-bound anti-CD3 antibody (1 μg/ml or indicated concentration) coated onto flat-bottomed polystyrene tissue culture plates overnight at 4° C. Purified T-cells (1×10^6/ml) were added to the coated 96-well plates in a 200 μl volume for 48 hours at 37° C. In some instances, 1.0 μg/ml anti-CD28 was added for co-stimulation.
(§5) Lenalidomide (Revlimid®) was provided by Celgene Corporation (Warren, N.J.). […] An equal volume of DMSO was used as a vehicle control.
as §1, with “Supernatant from stimulation experiments was frozen at −80° C. for analysis via Human IL-2 ELISA kit (eBioscience, San Diego, Calif. USA).” left out

[10] = system: CD8^+CD28^+ and CD8^+CD28^− T-cells; assay: BrdU proliferation of sorted CD8^+CD28^+ and CD8^+CD28^− T-cells; type: cell-based, human; conditions: 3 days, 10 μM LEN
Protocol: Proliferation was determined after in vitro activation by bromodeoxyuridine (BrdU) incorporation (BrdU flow kit, BD Biosciences, San Diego, Calif. USA). […] of BrdU was added during the last 45 min of T-cell stimulation. BrdU pulsed T-cells were harvested and stained with anti-CD4-PE and anti-CD8-PE-Cy-5 (BD Pharmingen, San Jose, Calif. USA). The cells were then fixed and permeabilized with BD Cytofix/Cytoperm buffer and incubated with DNase for 1 hour at 37° C. Cells were stained with anti-BrdU-FITC antibody before flow cytometry analysis on an LSRII flow cytometer (BD Biosciences, San Jose, Calif. USA). The percentage of BrdU positive cells from each population was analyzed using Flow-Jo Software (TreeStar Inc, Ashland, Oreg. USA.).
as §2

[11] = Storage of DMSO stock solutions; type: physicochemical; conditions: −20° C.
Description: as §5

[12] = system: murine T-cells; assay: IL-2 production by ELISA in murine T-cells; type: cell-based, B57BL6 mice
Description: as §4, §5

[13] = system: purified human T-cells; assay: T-cell proliferation by BrdU incorporation, anti-CD3 stimulated; type: cell-based; conditions: increasing anti-CD3, 10 μM LEN
Description: as §4, with “Purified T-cells (1×10^6/ml) were added to the coated 96-well plates in a 200 μl volume for 48 hours at 37° C. In some instances, 1.0 μg/ml anti-CD28 was added for co-stimulation.” left out
Proliferation was determined after in vitro activation by bromodeoxyuridine (BrdU) incorporation (BrdU flow kit, BD Biosciences, San Diego, Calif. USA). […] The percentage of BrdU positive cells from each population was analyzed using Flow-Jo Software (TreeStar Inc, Ashland, Oreg. USA.).

[14] = system: IL-2 gene; assay: IL-2 mRNA expression by RT-qPCR; type: cell-based, human; conditions: anti-CD3 alone without anti-CD28, 18 hours
Description: as §4, with “To activate the T-cell receptor (TCR), T-cells were stimulated with plate-bound anti-CD3 antibody (1 μg/ml or indicated concentration) coated onto flat-bottomed polystyrene tissue culture plates overnight at 4° C. Purified T-cells (1×10^6/ml) were added to the coated 96-well plates in a 200 μl volume for 48 hours at 37° C. In some instances, 1.0 μg/ml anti-CD28 was added for co-stimulation.” left out
as §3

[15] = species comparison; cited from earlier work

- stability of stock solutions on storage [11]: variable loss in activity
Structure (SMILES): Nc1cccc2c1CN(C1CCC(=O)NC1=O)C2=O (stereo not drawn) [LEN, Lenalidomide]
- CD28 surface expression (MFI) compared to DMSO [1]: amplifies this anti-CD3 response
- LEN-induced IL-2 release, fold increase ([2]; control siRNA): 7.5 fold
- LEN-induced IL-2 release, fold increase ([2]; siRNA-CD28 knockdown): 4.9 fold
- hematologic response (IWG) in relation to pre-treatment CD28^+ T-cells [3]: correlation between accumulation of CD28^− T-cells and resistance to LEN
- CD28 re-expression ([4]; after anti-CD3 plus anti-CD28 stimulation): re-expression was slightly increased
- ligand-induced CD28 internalization ([4]; anti-CD3 plus anti-CD28 stimulation): does not impair ligand-induced internalization
- binding of pCREB to the IL-2 promoter compared to DMSO [5]: increases binding of pCREB to the IL-2 promoter
- total protein expression of CD28 [6]: did not significantly increase
- elaboration of IL-2 in CD8^+CD28^− T-cells [7]: completely abolished in CD8^+CD28^− T-cells with no response to LEN
- CD28 mRNA [8]: did not significantly increase
- IL-2 production with increasing concentrations of LEN ([9]; fixed 5 μg/ml anti-CD3 alone): dose-dependency of IL-2 production
- increase in IL-2 production ([9]; human T-cells, anti-CD3 plus anti-CD28 co-stimulation, average, p<0.001): 6 fold
- production of IL-2 compared to DMSO ([9]; human T-cells, increasing anti-CD3, no anti-CD28, 10 μM LEN): increased the production of IL-2
- proliferation of CD8^+CD28^+ T-cells ([10]; anti-CD3 stimulation alone): increased proliferation of CD8^+CD28^+ T-cells in a dose-dependent fashion
- proliferation of CD8^+CD28^− T-cells compared to DMSO ([10]; anti-CD3 stimulation): displayed no response to LEN
- IL-2 production in TCR-stimulated murine T-cells ([12]; anti-CD3 alone): failed to induce IL-2 production
- anti-CD28 signaling response (IL-2) in murine T-cells ([12]; anti-CD3 plus anti-CD28): failed to intensify the anti-CD28 signaling response
- proliferating cells (% BrdU positive) compared to DMSO [13]: stimulated more cells to proliferate in a dose dependent fashion
- IL-2 mRNA compared to DMSO [14]: dose-dependent increase in IL-2 mRNA

Structure (SMILES): O=C1CCC(N2C(=O)c3ccccc3C2=O)C(=O)N1 (stereo not drawn) [Thalidomide]
- teratogenic activity [15]: teratogenic activity only in humans, rabbits, chickens and zebrafish, but not in rodents
